Reference: patent publication US9648880B2, “Antifungal agents and uses thereof” (University of Massachusetts, priority 2012, dated 2017)
Values joined by “and” are separate entries in the source; they are usually repeats but may differ in a detail not shown here. Equal values may be shown once.

Columns and labels:
p300 = target: T1, p300 (Homo sapiens, UniProt Q09472); assay: HAT-ThioGlo1 time course assay, p300; type: biochemical; conditions: up to 100 μM
T1 construct: p300 catalytic domain (p300 amino acids 1195-1810; Fan, 2010); 6xHis (N); FLAG (N); made in house; host or cells: BL21 E. coli
T1 sequence (Q09472 1195-1810): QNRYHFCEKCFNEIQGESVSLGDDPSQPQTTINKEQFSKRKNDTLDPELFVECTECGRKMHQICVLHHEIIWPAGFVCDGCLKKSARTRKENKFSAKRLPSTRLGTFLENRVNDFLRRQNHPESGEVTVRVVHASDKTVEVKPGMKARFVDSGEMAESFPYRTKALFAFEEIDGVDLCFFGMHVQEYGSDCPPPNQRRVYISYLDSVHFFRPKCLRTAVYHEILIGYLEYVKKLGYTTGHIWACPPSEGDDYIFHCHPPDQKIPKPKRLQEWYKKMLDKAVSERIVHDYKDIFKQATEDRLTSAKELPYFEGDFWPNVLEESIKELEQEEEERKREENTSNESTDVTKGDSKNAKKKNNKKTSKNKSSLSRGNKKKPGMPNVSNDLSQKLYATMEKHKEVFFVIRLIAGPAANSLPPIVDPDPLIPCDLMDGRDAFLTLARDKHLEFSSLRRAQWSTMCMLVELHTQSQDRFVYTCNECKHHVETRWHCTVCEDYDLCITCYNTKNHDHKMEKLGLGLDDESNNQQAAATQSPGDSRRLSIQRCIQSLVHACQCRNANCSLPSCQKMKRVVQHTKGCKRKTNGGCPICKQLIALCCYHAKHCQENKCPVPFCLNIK

Rtt109-Vps75 = target: T2, Rtt109-Vps75 (Saccharomyces cerevisiae, UniProt Q07794); assay: HAT-ThioGlo1 time course assay, Rtt109-Vps75; type: biochemical, S. cerevisiae; conditions: IC50, 50 nM Rtt109-Vps75, 15 μM H3n21 peptide, 30 μM Ac-CoA
T2 construct: 6xHis (on one of the two proteins of the complex); made in house; host or cells: bacteria
T2 sequence (Q07794 1-436): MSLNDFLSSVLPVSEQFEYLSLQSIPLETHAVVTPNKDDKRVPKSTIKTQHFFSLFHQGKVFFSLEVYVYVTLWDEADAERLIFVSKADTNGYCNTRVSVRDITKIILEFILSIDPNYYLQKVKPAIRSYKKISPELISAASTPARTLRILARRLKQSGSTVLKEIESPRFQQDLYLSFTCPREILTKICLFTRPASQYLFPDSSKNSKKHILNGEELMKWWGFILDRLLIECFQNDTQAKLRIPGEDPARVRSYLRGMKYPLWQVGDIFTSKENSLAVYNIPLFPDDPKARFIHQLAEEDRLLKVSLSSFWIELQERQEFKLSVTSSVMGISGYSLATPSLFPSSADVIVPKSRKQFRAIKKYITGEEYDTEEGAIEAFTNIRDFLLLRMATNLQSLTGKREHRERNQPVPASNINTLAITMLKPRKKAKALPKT
T2 sequence (P53853 1-264 partner): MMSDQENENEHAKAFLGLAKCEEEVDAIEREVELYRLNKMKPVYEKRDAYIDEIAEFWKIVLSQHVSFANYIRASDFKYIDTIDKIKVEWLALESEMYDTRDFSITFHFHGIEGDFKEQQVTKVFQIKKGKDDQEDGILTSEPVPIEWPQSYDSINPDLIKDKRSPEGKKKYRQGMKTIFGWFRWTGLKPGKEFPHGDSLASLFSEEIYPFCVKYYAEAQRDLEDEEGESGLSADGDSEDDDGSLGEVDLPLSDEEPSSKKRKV

Gcn5 = target: T3, Gcn5 (Saccharomyces cerevisiae, UniProt Q03330); assay: HAT-ThioGlo1 time course assay, Gcn5; type: biochemical, S. cerevisiae; conditions: up to 100 μM
T3 construct: 6xHis (N); made in house; host or cells: BL21 E. coli
T3 sequence (Q03330 whole entry): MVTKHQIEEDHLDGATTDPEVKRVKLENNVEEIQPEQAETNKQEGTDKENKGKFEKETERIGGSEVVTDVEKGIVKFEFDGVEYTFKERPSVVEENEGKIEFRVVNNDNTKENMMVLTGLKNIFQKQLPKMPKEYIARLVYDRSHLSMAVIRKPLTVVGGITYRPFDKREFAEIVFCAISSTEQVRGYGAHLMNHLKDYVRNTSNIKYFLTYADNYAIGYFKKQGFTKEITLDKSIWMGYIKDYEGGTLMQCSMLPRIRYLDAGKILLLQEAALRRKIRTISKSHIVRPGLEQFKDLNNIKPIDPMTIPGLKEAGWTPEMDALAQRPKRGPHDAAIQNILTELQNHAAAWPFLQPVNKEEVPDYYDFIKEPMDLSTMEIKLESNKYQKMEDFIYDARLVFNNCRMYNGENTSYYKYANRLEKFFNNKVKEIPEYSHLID

CCCC1(c2ccccc2)NC(=O)N(CC(=O)N(C)Cc2c(F)cccc2Cl)C1=O (stereo not drawn) [KB7, N-[(2-chloro-6-fluorophenyl)methyl]-2-(2,5-dioxo-4-phenyl-4-propylimidazolidin-1-yl)-N-methylacetamide]
enzyme reaction rate, % activity (p300): ≥ 80%
IC50 (Rtt109-Vps75): 55.2 nM and ~56 nM
enzyme reaction rate, % activity (Gcn5): ≥ 80%
